Data reported in patent publication US12465603B2, “Phthalazinone based modulators for the treatment of disease” (Soley Therapeutics, Inc., priority 2022, dated 2025).

Key:
[1] = system: A2058 (ATCC, CRL-11147) cells; experiment: Cell viability assay (Cell Titre Glo, 72 hours) in A2058 cells; type: cell-based; settings: Homo sapiens
Experimental: (§1) Example 31: Cell Viability Assays
(§2) Phthalazinone based modulators as described herein were dispensed into 384 well CulturPlates™ (PerkinElmer) using Echo 555 acoustic dispensing in 10-point dose response curves at a final top concentration of 30 μM following a 1 in 3 dilution series. A2058 (ATCC, CRL-11147) or PA1 (ECACC, 90013101) cells were added directly to a compound at a density of 5000 cells per well in a final volume of 50 μL and incubated for 72 hours at 37° C., 5% CO2. Viability was assessed using Cell Titre Glo® (Promega) according to the manufacturer's instructions (25 μL per well) and IC50 curves were generated for each inhibitor using IDBS ActivityBase data analysis software.

[2] = system: PA1 (ECACC, 90013101) cells; experiment: Cell viability assay (Cell Titre Glo, 72 hours) in PA1 cells; type: cell-based; settings: Homo sapiens, PA-1
Experimental: as §1, §2

Row | Structure (SMILES) | IC50 [1] [µM] | IC50 [2] [µM]
1 | CCn1nc(C(=O)N2CCN(c3ncc(F)cc3C)CC2)c2ccccc2c1=O [Compound 87] | > 20 | > 20
2 | CCn1nc(C(=O)N2CCN(c3cccc(C(F)(F)F)c3OC)CC2)c2ccccc2c1=O [Compound 137] | > 20 | 10 to 20
3 | CCn1nc(C(=O)N2CCN(c3cccc4c3oc(=O)n4C)CC2)c2ccccc2c1=O [Compound 90] | > 20 | > 20
4 | Cn1nc(C(=O)N2CCN(c3ccncc3F)CC2)c2ccccc2c1=O [Compound 18] | > 20 | > 20
5 | CC(C)n1nc(C(=O)N2CCN(c3ccccc3)CC2)c2ccccc2c1=O [Compound 4] | > 20 | 10 to 20
6 | CCn1nc(C(=O)N2CCN(c3ccccc3)CC2)c2ccccc2c1=O [Compound 3, 2-ethyl-4-(4-phenylpiperazine-1-carbonyl)phthalazin-1-one] | 1 to 10 | ≤ 1
7 | Cn1nc(C(=O)N2CCN(c3ccc(C(F)(F)F)cc3)CC2)c2ccccc2c1=O [Compound 27] | 1 to 10 | 1 to 10
8 | Cn1nc(C(=O)N2CCN(c3ccc4c(c3)OCC4)CC2)c2ccccc2c1=O [Compound 51] | > 20 | 10 to 20
9 | Cn1nc(C(=O)N2CCN(c3cc(F)cc(C#N)c3)CC2)c2ccccc2c1=O [Compound 61, 3-fluoro-5-(4-(3-methyl-4-oxo-3,4-dihydrophthalazine-1-carbonyl)piperazin-1-yl)benzonitrile] | ≤ 1 | ≤ 1
10 | CCn1nc(C(=O)N2CCN(c3cncnc3OC)CC2)c2ccccc2c1=O [Compound 83] | 1 to 10 | ≤ 1
11 | Cn1nccc1N1CCN(C(=O)c2nn(C)c(=O)c3ccccc23)CC1 [Compound 227] | > 20 | > 20
12 | CCOc1ccccc1N1CCN(C(=O)c2nn(C)c(=O)c3ccccc23)CC1 [Compound 42] | ≤ 1 | ≤ 1
13 | Cn1nc(C(=O)N2CCN(c3ccc(F)c(F)c3)CC2)c2ccccc2c1=O [Compound 43] | 1 to 10 | 1 to 10
14 | CCn1nc(C(=O)N2CCN(c3cccc(OC)c3F)CC2)c2ccccc2c1=O [Compound 149] | 10 to 20 | 1 to 10
15 | CCCn1nc(C(=O)N2CCN(c3ccccc3)CC2)c2ccccc2c1=O [Compound 5] | > 20 | 10 to 20
16 | CCn1nc(C(=O)N2CCN(c3ccc(F)c4c3OCC4)CC2)c2ccccc2c1=O [Compound 186, 2-ethyl-4-(4-(4-fluoro-2,3-dihydrobenzofuran-7-yl)piperazine-1-carbonyl)phthalazin-1(2H)-one] | ≤ 1 | ≤ 1
17 | Cn1nc(C(=O)N2CCN(c3cc(C#N)ccc3Cl)CC2)c2ccccc2c1=O [Compound 229, 4-chloro-3-(4-(3-methyl-4-oxo-3,4-dihydrophthalazine-1-carbonyl)piperazin-1-yl)benzonitrile] | ≤ 1 | ≤ 1
18 | Cn1nc(C(=O)N2CCN(c3ccnc4c3OCC4)CC2)c2ccccc2c1=O [Compound 189] | ≤ 1 | ≤ 1
19 | Cc1cc(C)nc(N2CCN(C(=O)c3nn(C)c(=O)c4ccccc34)CC2)n1 [Compound 64] | > 20 | 1 to 10

Row | Structure (SMILES) | IC50 [1] [µM] | IC50 [2] [µM]
20 | Cn1nc(C(=O)N2CCN(c3cc(C#N)cc(C4CC4)c3)CC2)c2ccccc2c1=O [Compound 206] | ≤ 1 | ≤ 1
21 | CCn1nc(C(=O)N2CCN(c3ncccc3C(F)(F)F)CC2)c2ccccc2c1=O [Compound 136] | 10 to 20 | 1 to 10
22 | Cn1ccc(N2CCN(C(=O)c3nn(C)c(=O)c4ccccc34)CC2)n1 [Compound 11] | > 20 | > 20
23 | CCn1nc(C(=O)N2CCN(c3cccc(OC)c3Br)CC2)c2ccccc2c1=O [Compound 153] | 1 to 10 | 1 to 10
24 | COCc1cncc(N2CCN(C(=O)c3nn(C)c(=O)c4ccc(F)cc34)CC2)c1 [Compound 164] | > 20 | > 20
25 | COc1cccc(N2CCN(C(=O)c3nn(C)c(=O)c4cnccc34)CC2)c1 [Compound 172, 1-(4-(3-methoxyphenyl)piperazine-1-carbonyl)-3-methylpyrido[3,4-d]pyridazin-4(3H)-one] | 1 to 10 | 1 to 10
26 | COc1cnc(C)cc1N1CCN(C(=O)c2nn(C)c(=O)c3ccccc23)CC1 [Compound 78] | 1 to 10 | 1 to 10
27 | CCn1nc(C(=O)N2CCN(c3ncc(F)cc3C3CC3)CC2)c2ccccc2c1=O [Compound 88] | ≤ 1 | ≤ 1
28 | Cc1cc(C)cc(N2CCN(C(=O)c3nn(C)c(=O)c4ccncc34)CC2)c1 [Compound 215] | 1 to 10 | ≤ 1
29 | Cn1nc(C(=O)N2CCN(c3cc(Cl)cc(Cl)c3)CC2)c2cnccc2c1=O [Compound 218] | ≤ 1 | ≤ 1
30 | CCn1nc(C(=O)N2CCN(c3ccc(OC)nn3)CC2)c2ccccc2c1=O [Compound 111] | > 20 | > 20
31 | CCn1nc(C(=O)N2CCN(c3cc(Cl)cc(C#N)c3)CC2)c2cc(F)ccc2c1=O [Compound 237] | ≤ 1 | ≤ 1
32 | Cn1nc(C(=O)N2CCN(c3nccn4ccnc34)CC2)c2ccccc2c1=O [Compound 196] | > 20 | > 20
33 | Cc1cc(N2CCN(C(=O)c3nn(C)c(=O)c4ccccc34)CC2)ccn1 [Compound 74] | > 20 | > 20
34 | CCn1nc(C(=O)N2CCN(c3cccc(C#N)c3)CC2)c2cc(F)ccc2c1=O [Compound 240] | ≤ 1 | ≤ 1
35 | CCn1nc(C(=O)N2CCN(c3cncnc3C3CC3)CC2)c2ccccc2c1=O [Compound 122] | 1 to 10 | ≤ 1
36 | Cn1nc(C(=O)N2CCN(c3ccccc3)CC2)c2cc(F)ccc2c1=O [Compound 156, 6-fluoro-2-methyl-4-(4-phenylpiperazine-1-carbonyl)phthalazin-1-one] | 1 to 10 | 1 to 10
37 | Cn1nc(C(=O)N2CCN(c3cncnc3C3CC3)CC2)c2ccccc2c1=O [Compound 40] | 1 to 10 | 1 to 10
38 | Cc1cccc(N2CCN(C(=O)c3nn(C)c(=O)c4ccccc34)CC2)c1 [Compound 25] | ≤ 1 | ≤ 1

Row | Structure (SMILES) | IC50 [1] [µM] | IC50 [2] [µM]
39 | COc1cccc(N2CCN(C(=O)c3nn(C)c(=O)c4ccccc34)CC2)c1 [Compound 50] | ≤ 1 | ≤ 1
40 | CCn1nc(C(=O)N2CCN(c3ccc(F)c(OC)c3)CC2)c2ccccc2c1=O [Compound 150] | ≤ 1 | ≤ 1
41 | COc1cc(C#N)ncc1N1CCN(C(=O)c2nn(C)c(=O)c3ccccc23)CC1 [Compound 24] | > 20 | > 20
42 | COc1cc(N2CCN(C(=O)c3nn(C)c(=O)c4ccccc34)CC2)ccn1 [Compound 36] | > 20 | > 20
43 | COc1ccc(C2(C)CCN(C(=O)c3nn(C)c(=O)c4ccccc34)CC2)cc1 [Compound 248, 4-(4-(4-methoxyphenyl)-4-methylpiperidine-1-carbonyl)-2-methylphthalazin-1(2H)-one] | 1 to 10 | 10 to 20
44 | CCn1nc(C(=O)N2CCN(c3ccccc3C(C)(F)F)CC2)c2ccccc2c1=O [Compound 131] | 1 to 10 | 1 to 10
45 | COc1cc(F)cc(N2CCN(C(=O)c3nn(C)c(=O)c4cnccc34)CC2)c1 [Compound 180] | 1 to 10 | ≤ 1
46 | Cn1nc(C(=O)N2CCN(c3cccc4nccn34)CC2)c2ccccc2c1=O [Compound 231, 4-(4-(imidazo[1,2-a]pyridin-5-yl)piperazine-1-carbonyl)-2-methylphthalazin-1(2H)-one] | > 20 | > 20
47 | Cn1nc(C(=O)N2CCN(c3cc(F)cc(OC(F)F)c3)CC2)c2ccccc2c1=O [Compound 198] | ≤ 1 | ≤ 1
48 | COc1cc(F)ccc1N1CCN(C(=O)c2nn(C)c(=O)c3ccncc23)CC1 [Compound 174] | 10 to 20 | 1 to 10
49 | CCn1nc(C(=O)N2CCN(c3ccc(F)c4ccoc34)CC2)c2ccccc2c1=O [Compound 92] | ≤ 1 | ≤ 1
50 | COc1cnccc1N1CCN(C(=O)c2nn(C)c(=O)c3ccccc23)CC1 [Compound 15] | 1 to 10 | ≤ 1
51 | Cc1cncc(N2CCN(C(=O)c3nn(C)c(=O)c4ccc(F)cc34)CC2)c1 [Compound 162] | 1 to 10 | ≤ 1
52 | CCn1nc(C(=O)N2CCN(c3cccc(C#N)c3OC)CC2)c2ccccc2c1=O [Compound 151, 3-(4-(3-ethyl-4-oxo-3,4-dihydrophthalazine-1-carbonyl)piperazin-1-yl)-2-methoxybenzonitrile] | 10 to 20 | 1 to 10
53 | COc1cncnc1N1CCN(C(=O)c2nn(C)c(=O)c3ccccc23)CC1 [Compound 22] | > 20 | > 20
54 | O=C(c1nn(C2CC2)c(=O)c2ccccc12)N1CCN(c2ccccc2)CC1 [Compound 9, 2-cyclopropyl-4-(4-phenylpiperazine-1-carbonyl)phthalazin-1-one] | 1 to 10 | ≤ 1
55 | CCn1nc(C(=O)N2CCN(c3ccc(F)cc3OC)CC2)c2ccccc2c1=O [Compound 130] | ≤ 1 | ≤ 1
56 | Cn1nc(C(=O)N2CCN(c3cc(C#N)ccc3C3CC3)CC2)c2ccccc2c1=O [Compound 62] | ≤ 1 | ≤ 1
57 | CCn1nc(C(=O)N2CCN(c3cccc(C(F)(F)F)c3)CC2)c2ccccc2c1=O [Compound 81, 2-ethyl-4-(4-(3-(trifluoromethyl)phenyl)piperazine-1-carbonyl)phthalazin-1(2H)-one] | 1 to 10 | ≤ 1
